These results are taken from BindingDB's records for doi:10.1021/bi1006354 (Beactica, 2010).

Structures are written as SMILES. Where “and” joins values, the source holds several entries; their conditions need not be identical. Identical values can stand only once.

Broadly, the Kd is the free concentration of one partner at which half of the binding sites on the other are occupied at equilibrium, for simple one-to-one binding. A higher Kd goes with weaker binding.

Chain of Acetylcholine-binding protein (P58154 whole entry): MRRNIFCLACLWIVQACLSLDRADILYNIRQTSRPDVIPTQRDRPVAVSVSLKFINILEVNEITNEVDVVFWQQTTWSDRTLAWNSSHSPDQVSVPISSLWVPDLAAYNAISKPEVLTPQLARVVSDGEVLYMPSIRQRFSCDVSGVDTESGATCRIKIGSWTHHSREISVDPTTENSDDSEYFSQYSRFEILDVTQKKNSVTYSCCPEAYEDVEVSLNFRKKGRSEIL

This assay deals with Acetylcholine-binding protein (Lymnaea stagnalis, UniProt P58154). Put plainly: Interaction Assay. The following applies: pH 7.4; 25 °C. From the text:
Interaction assay using AChBP.
The compound `O=C(N[C@@H]1C2CCN(CC2)C1Cc1cccnc1)c1cc2ccccc2o1` (stereo not given in full) [Quinuclidine analogue, 5] gave a Kd of 12.8 nM. Consider `N[C@@H]1C2CCN(CC2)C1Cc1cccnc1` (stereo not given in full) [Quinuclidine analogue, 2], for which the affinity, expressed as Kd, was 345 nM. Compound `O=C(N[C@@H]1C2CCN(CC2)C1Cc1cccnc1)c1ccccc1` (stereo not given in full) [Quinuclidine analogue, 3] displayed a dissociation constant (Kd) of 141 nM. For `CN(C)CCc1cccnc1` [Quinuclidine analogue, 1] the value was 4250 nM; for `CC(=O)OCC[N+](C)(C)C` [2-acetoxyethyl(trimethyl)ammonium;perchlorate], 458 nM and 3850 nM.
